Test results published in patent publication US5686417A, “Peptide T and related peptides in the treatment of HTLV-1 myelopathy and multiple sclerosis” (Reed MacFadden, Ltd., priority 1995, dated 1997).

Experiments:
[1] = tested on: multiple sclerosis patients; assay: case treatments of multiple sclerosis (Examples 2-5); format: in vivo, human
Protocol: A person was diagnosed as having MS after presenting with weakness, loss of balance, double vision, and paraesthesia in their right arm. They were treated with prednisone and later with physiotherapy. […] Tone was increased in both lower limbs and they had bilateral ankle clonus. Deep tendon reflexes were 2+ in the arms, 3+ in both knees and ankles and the planter responses were extensor.
They were started on 10 milligram subcutaneous injections of Peptide T daily. […] Their frequency of nocturia was reduced, fine motor control improved, stuttering decreased, their legs were less spastic and they could stand with minimal support.
A person was diagnosed with optic neuritis secondary to multiple sclerosis after presenting with numbness, impaired motor function, and blurred vision (20/300 bilaterally). Their somatic neurological examination was within normal limits. Minor episodes of numbness and impaired speech, balance and co-ordination had occurred over 6 months, as well as headache and loss of vision.
Peptide T therapy was started.
A person with their first multiple sclerosis episode had optic neuritis and complete blindness in the right eye for 2 weeks, numbness in their right leg and then both legs. Their symptoms worsened. […] They had worsening of their ataxia and blurred vision. They were given prednisone 80 milligrams per day. […] The patient complained of oscillopsia. […] Findings were typical of demyelination consistent with MS. […] The tone was increased in their lower limbs and they had non-sustained ankle clonus bilaterally. Their knee jerk was increased on the right compared to the left. Plantar responses were both upgoing. They had decreased position, vibration, light touch and cold sensation in the feet compared to the hands.
About 2 months later the patient was started on Peptide T 10 milligrams subcutaneously daily. […] They experienced improved feelings in their fingers, fine movements of their hands and improved cognitive function.
A person with a history of dizziness, ataxia, episodes of vertigo, impairment of motor function and generalized weakness of the legs was treated with dilantin and admitted to hospital. […] They were reassessed about 2 years later for episodes of dizziness, and complaints of leg spasms. […] Planter response was downgoing and they had upwards gaze vertical nystagmus as previously noted.

[2] = in vivo; cited from earlier work
[3] = tested on: mouse fetal hippocampal neurons; settings: mouse hippocampal neuronal culture; cited from earlier work
protein kinase C = settings: cited from earlier work
rat spinal cord = settings: spinal administration; cited from earlier work

## NCC(CC(=O)O)c1ccc(Cl)cc1 (centres unmarked) [Lioresal (Baclofen), Baclofen]
[1]; Example 2, before Peptide T
  response to earlier treatment: some improvement

## C[C@@H](N)C(=O)N[C@@H](CO)C(=O)N[C@H](C(=O)N[C@H](C(=O)N[C@H](C(=O)N[C@@H](CC(N)=O)C(=O)N[C@@H](Cc1ccc(O)cc1)C(=O)N[C@H](C(N)=O)[C@@H](C)O)[C@@H](C)O)[C@@H](C)O)[C@@H](C)O [Peptide T, D-Ala-Ser-Thr-Thr-Thr-Asn-Tyr-Thr- Amide]
[2]
  exit from the brain: diffusion only

## C[C@]12C=CC(=O)C=C1CC[C@@H]1[C@@H]2C(=O)C[C@@]2(C)[C@H]1CC[C@]2(O)C(=O)CO [prednisone]
[1]; Example 4, 150 mg daily, while off Peptide T
  symptomatic response: minimal symptomatic improvement
[1]; Example 4, 80 milligrams per day
  ataxia and some visual problems: seemed to improve
[1]; Example 4, first course, dose not stated
  response to treatment: some improvement

## vasoactive intestinal peptide [VIP]
[3]
  effect on gp120-induced neurotoxicity: completely eliminated
Protein kinase C
  cellular effects via protein kinase C: regulation of protein kinase C
Rat spinal cord
  analgesia, fail-flick latency test and tail-shock induced vocalization test: produced analgesia
